This is an account of results in ChEMBL document CHEMBL3351405, “Novel tricyclic pyrazolopyrimidines as potent and selective GPR119 agonists” (Bioorg Med Chem Lett, 2014).

Converted amounts (≈) assume the structure as drawn.

The target of series [1] is T1, Glucose-dependent insulinotropic receptor (Homo sapiens, UniProt Q8TDV5).
T1 sequence (Q8TDV5 whole entry): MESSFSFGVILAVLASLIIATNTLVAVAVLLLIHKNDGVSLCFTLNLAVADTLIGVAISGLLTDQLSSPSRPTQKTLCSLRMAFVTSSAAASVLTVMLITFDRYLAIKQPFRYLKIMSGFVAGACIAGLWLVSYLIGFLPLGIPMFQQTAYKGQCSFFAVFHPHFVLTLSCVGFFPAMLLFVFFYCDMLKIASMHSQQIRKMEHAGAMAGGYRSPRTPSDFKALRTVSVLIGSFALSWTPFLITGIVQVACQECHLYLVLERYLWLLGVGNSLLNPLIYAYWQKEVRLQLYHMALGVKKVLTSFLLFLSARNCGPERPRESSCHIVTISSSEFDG
Description: Agonist activity at human GPR119 overexpressed in CHO cells assessed as increase in cellular cAMP production by HTRF method. Format: functional, cell-based.

In series [2] the target is T2, Glucose-dependent insulinotropic receptor (Homo sapiens) (UniProt Q8TDV5).
T2 sequence (whole entry): T1 sequence (Q8TDV5 whole entry)
As to the kind of experiment: Agonist activity at human GPR119 overexpressed in CHO cells assessed as increase in cellular cAMP production by HTRF method relative to AR231453. It is filed as functional, cell-based.

Series [3] can be described thus: Clearance in human liver microsomes assessed as extraction ratio. Conditions: read-out: ERH. It is filed as ADME.
For series [4], the system named is Mus musculus. Description: Dose normalized AUC in po dosed Balb/C mouse. Format: ADME, organism-based. Conditions: in vivo.
Series [5] is described as follows: Solubility of the compound at pH 6.8. Conditions: buffer. Format: physicochemical.
Series [6] relates to Mus musculus. As to the kind of experiment: Increase in plasma GLP1 level in 16 hrs fasted wild-type C57BL/6J mouse at 10 mg/kg, po administered as single dose 30 mins prior to glucose excursion measured after 2 mins by ELISA relative to vehicle-treated control. It is filed as functional.
Series [7] deals with Rattus norvegicus. As to the kind of experiment: Antidiabetic activity in ZDF fa/fa rat model assessed as reduction in glucose AUC at 3 mg/kg, po qd administered 1 hr prior to glucose bolus after 2 weeks by OGTT relative to vehicle-treated control. It is filed as functional, Zucker. Also noted: scale not given: the % may be the effect or the level left.
For series [8], the system named is Rattus norvegicus. As to the kind of experiment: Antidiabetic activity in ZDF fa/fa rat model assessed as reduction in glucose AUC at 10 mg/kg, po qd administered 1 hr prior to glucose bolus after 2 weeks by OGTT relative to vehicle-treated control. It is filed as functional, Zucker. Also noted: scale not given: the % may be the effect or the level left.
In series [9] the test system is Rattus norvegicus. As to the kind of experiment: Antidiabetic activity in ZDF fa/fa rat model assessed as reduction in glucose AUC at 30 mg/kg, po qd administered 1 hr prior to glucose bolus after 2 weeks by OGTT relative to vehicle-treated control. Format: functional, Zucker. Also noted: scale not given: the % may be the effect or the level left.

Turning to `COC(=O)[C@@]1(Cc2cccc(F)c2)NCc2cnc3c(-c4ccc(C(F)(F)F)cc4)c(CO)nn3c21`, the concentration for a half-maximal effect (EC50) in series [1] came to 5 nM. Moreover, the Efficacy came to 99% in series [2] and 103% in series [2] (tested as the 2H-labelled form). Moreover, the hepatic extraction ratio in series [3] came out at 0.82. The AUC/dose in [4] amounted to 7.65 µM·h. The solubility in series [5] amounted to 58 µM (≈ 29 µg/mL). Besides, the Activity in series [6] is 29%; in [7] it was 1%; in series [8] it was 11%; in series [9], 37%.
